# Results as given in patent EP4806891A1 (Kangbaida (Sichuan) Biotechnology Co., Ltd., priority 2023, dated 2025).
# Molecular target: T1, HEK-Blue-hTLR7 cells (Homo sapiens, UniProt Q9NYK1)
# T1 construct: expressed in transfected cells; host or cells: HEK-Blue-hTLR7 cells (HEK293-derived reporter line)
# T1 sequence (Q9NYK1 27-1049): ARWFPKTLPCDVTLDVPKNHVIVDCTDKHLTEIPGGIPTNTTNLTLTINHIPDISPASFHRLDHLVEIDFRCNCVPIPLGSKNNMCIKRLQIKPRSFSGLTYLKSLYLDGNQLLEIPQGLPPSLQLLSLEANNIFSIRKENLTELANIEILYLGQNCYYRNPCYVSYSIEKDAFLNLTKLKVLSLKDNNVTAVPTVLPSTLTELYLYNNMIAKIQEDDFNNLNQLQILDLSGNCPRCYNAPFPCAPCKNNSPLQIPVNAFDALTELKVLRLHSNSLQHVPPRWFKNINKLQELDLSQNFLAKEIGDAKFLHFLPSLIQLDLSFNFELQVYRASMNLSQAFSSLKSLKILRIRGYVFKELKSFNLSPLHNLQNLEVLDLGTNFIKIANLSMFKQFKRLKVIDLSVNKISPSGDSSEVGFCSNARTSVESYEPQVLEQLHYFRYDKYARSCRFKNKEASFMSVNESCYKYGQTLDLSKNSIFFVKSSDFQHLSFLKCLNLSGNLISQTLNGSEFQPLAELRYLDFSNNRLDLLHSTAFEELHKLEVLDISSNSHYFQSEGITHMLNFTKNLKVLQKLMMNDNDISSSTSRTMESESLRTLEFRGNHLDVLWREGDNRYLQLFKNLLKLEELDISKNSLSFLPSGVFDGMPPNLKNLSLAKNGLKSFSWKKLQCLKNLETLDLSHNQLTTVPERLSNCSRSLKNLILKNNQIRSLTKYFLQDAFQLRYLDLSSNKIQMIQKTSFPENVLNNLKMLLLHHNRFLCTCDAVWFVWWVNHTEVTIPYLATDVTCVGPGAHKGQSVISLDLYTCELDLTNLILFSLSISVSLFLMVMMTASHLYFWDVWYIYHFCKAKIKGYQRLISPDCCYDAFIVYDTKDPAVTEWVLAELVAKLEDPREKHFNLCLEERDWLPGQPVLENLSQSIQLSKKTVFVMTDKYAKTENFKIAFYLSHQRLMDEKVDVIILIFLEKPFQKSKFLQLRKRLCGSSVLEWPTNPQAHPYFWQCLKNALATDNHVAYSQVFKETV
# Experiment: HEK-Blue-hTLR7 cell inhibition assay
# Type: cell-based
# Details: R848 0.8 µM, 16 h, OD 620 nm, read-out: TLR7 IC50
# In short: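 Cells were pre-incubated 4 h, then co-treated 16 h at 37 °C with compound (10 doses, 0.5–10000 nM final) plus R848 (0.8 µM for TLR7, 3 µM for TLR8) or ODN2006 (1 µM, TLR9). Reporter OD620 gave inhibition relative to DMSO blank and agonist-only controls; IC50 came from curve fitting.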
row,SMILES,IC50
1,"CN1CC(c2nnc([C@]34CN(c5ccc(C#N)c6ncccc56)C[C@@]3(C(F)(F)F)C4)o2)C1 [Compound 39, 5-((1S,5R)-1-(5-(1-methylazetidin-3-yl)-1,3,4-oxadiazol-2-yl)-5-(trifluoromethyl)-3-azabicyclo[3.1.0]hexan-3-yl)quinoline-8-carbonitrile]",< 100 nM
2,"N#Cc1ccc(N2C[C@]3(c4nnc(CN5CCOCC5)o4)C[C@]3(C(F)(F)F)C2)c2cccnc12 [Compound 40, 5-((1S,5R)-1-(5-(morpholinomethyl)-1,3,4-oxadiazol-2-yl)-5-(trifluoromethyl)-3-azabicyclo[3.1.0]hexan-3-yl)quinoline-8-carbonitrile]",< 1000 nM
3,"CN(C)Cc1nnc([C@]23CN(c4ccc(C#N)c5ncccc45)C[C@@]2(C(F)(F)F)C3)o1 [Compound 42, 5-((1S,5R)-1-(5-((dimethylamino)methyl)-1,3,4-oxadiazol-2-yl)-5-(trifluoromethyl)-3-azabicyclo[3.1.0]hexan-3-yl)quinoline-8-carbonitrile]",< 100 nM
4,"N#Cc1ccc(N2C[C@]3(c4nnc(CCN5CCOCC5)o4)C[C@]3(C(F)(F)F)C2)c2cccnc12 [Compound 43, 5-((1S,5R)-1-(5-(morpholinoethyl)-1,3,4-oxadiazol-2-yl)-5-(trifluoromethyl)-3-azabicyclo[3.1.0]hexan-3-yl)quinoline-8-carbonitrile]",< 1000 nM
5,"N#Cc1ccc(N2C[C@]3(c4nnc(C5CNCC(F)C5)o4)C[C@]3(C(F)(F)F)C2)c2cccnc12 (stereo partly drawn) [Compound 45, 5-((1R,5S)-1-((difluoro-3-methyl)-12-fluoraneyl)-5-(5-(5-fluoropiperidin-3-yl)-1,3,4-oxadiazol-2-yl)-3-azabicyclo[3.1.0]hexan-3-yl)quinoline-8-carbonitrile]",< 100 nM
6,"N#Cc1ccc(N2C[C@]3(c4nnc(C5(F)CCNC5)o4)C[C@]3(C(F)(F)F)C2)c2cccnc12 (stereo partly drawn) [Compound 46, 5-((1S,5R)-1-(5-(3-fluoropyrrolidin-3-yl)-1,3,4-oxadiazol-2-yl)-5-(trifluoromethyl)-3-azabicyclo[3.1.0]hexan-3-yl)quinoline-8-carbonitrile]",< 100 nM
7,"CN1CCC(F)(c2nnc([C@]34CN(c5ccc(C#N)c6ncccc56)C[C@@]3(C(F)(F)F)C4)o2)C1 (stereo partly drawn) [Compound 47, 5-((1S,5R)-1-(5-(3-fluoro-1-methylpyrrolidin-3-yl)-1,3,4-oxadiazol-2-yl)-5-(trifluoromethyl)-3-azabicyclo[3.1.0]hexan-3-yl)quinoline-8-carbonitrile]",< 100 nM
8,"CN1CC(F)(c2nnc([C@]34CN(c5ccc(C#N)c6ncccc56)C[C@@]3(C(F)(F)F)C4)o2)C1 [Compound 49, 5-((1S,5R)-1-(5-(3-fluoro-1-methylazetidin-3-yl)-1,3,4-oxadiazol-2-yl)-5-(trifluoromethyl)-3-azabicyclo[3.1.0]hexan-3-yl)quinoline-8-carbonitrile]",< 100 nM
9,"CN(C)CCc1nnc([C@]23CN(c4ccc(C#N)c5ncccc45)C[C@@]2(C(F)(F)F)C3)o1 [Compound 51, 5-((1S,5R)-1-(5-(2-(dimethylamino)ethyl)-1,3,4-oxadiazol-2-yl)-5-(trifluoromethyl)-3-azabicyclo[3.1.0]hexan-3-yl)quinoline-8-carbonitrile]",< 100 nM
10,"N#Cc1ccc(N2C[C@]3(c4nnc(C56CCC(N)(CC5)CC6)o4)C[C@]3(C(F)(F)F)C2)c2cccnc12 [Compound 52, 5-((1S,5R)-1-(5-(4-aminobicyclo[2.2.2]octan-1-yl)-1,3,4-oxadiazol-2-yl)-5-(trifluoromethyl)-3-azabicyclo[3.1.0]hexan-3-yl)quinoline-8-carbonitrile]",< 100 nM
11,"CN(C)C12CCC(c3nnc([C@]45CN(c6ccc(C#N)c7ncccc67)C[C@@]4(C(F)(F)F)C5)o3)(CC1)CC2 [Compound 53, 5-((1S,5R)-1-(5-(4-(dimethylamino)bicyclo[2.2.2]octan-1-yl)-1,3,4-oxadiazol-2-yl)-5-(trifluoromethyl)-3-azabicyclo[3.1.0]hexan-3-yl)quinoline-8-carbonitrile]",< 100 nM
12,"N#Cc1ccc(N2C[C@]3(c4nnc(C56CCC(NC(=O)[C@@H]7COCCN7)(CC5)CC6)o4)C[C@]3(C(F)(F)F)C2)c2cccnc12 [Compound 54, (S)-N-(4-(5-((1S,5R)-3-(8-cyanoquinolin-5-yl)-5-(trifluoromethyl)-3-azabicyclo[3.1.0]hexan-1-yl)-1,3,4-oxadiazol-2-yl)bicyclo[2.2.2]octan-1-yl)morpholine-3-carboxamide]",< 100 nM
13,"N#Cc1ccc(N2C[C@]3(c4nnc([C@H]5CN(CC(N)=O)CCO5)o4)C[C@]3(C(F)(F)F)C2)c2cccnc12 [Compound 56, 2-((R)-2-(5-((1S,5R)-3-(8-cyanoquinolin-5-yl)-5-(trifluoromethyl)-3-azabicyclo[3.1.0]hexan-1-yl)-1,3,4-oxadiazol-2-yl)morpholino)acetamide]",< 100 nM
14,"N#Cc1ccc(N2C[C@]3(c4nnc(C5(F)CCNCC5)o4)C[C@]3(C(F)(F)F)C2)c2cccnc12 [Compound 60, 5-((1S,5R)-1-(5-(4-fluoropiperidin-4-yl)-1,3,4-oxadiazol-2-yl)-5-(trifluoromethyl)-3-azabicyclo[3.1.0]hexan-3-yl)quinoline-8-carbonitrile]",< 100 nM
15,"COc1ccc(N2C[C@]3(c4nnc(C5CCN(C)CC5)o4)C[C@]3(C(F)(F)F)C2)c2cccnc12 [Compound 66, 2-((1S,5R)-3-(8-methoxyquinolin-5-yl)-5-(trifluoromethyl)-3-azabicyclo[3.1.0]hexan-1-yl)-5-(1-methylpiperidin-4-yl)-1,3,4-oxadiazole]",< 100 nM

# Other lines, results leading:
row,IC50,SMILES
1,< 100 nM,"CN1CC(Cc2nnc([C@]34CN(c5ccc(C#N)c6ncccc56)C[C@@]3(C(F)(F)F)C4)o2)C1 [Compound 36, 5-((1S,5R)-1-(5-((1-methylazetidin-3-yl)methyl)-1,3,4-oxadiazol-2-yl)-5-(trifluoromethyl)-3-azabicyclo[3.1.0]hexan-3-yl)quinoline-8-carbonitrile]"
2,< 100 nM,"CN1CCC(Cc2nnc([C@]34CN(c5ccc(C#N)c6ncccc56)C[C@@]3(C(F)(F)F)C4)o2)CC1 [Compound 37, 5-((1S,5R)-1-(5-((1-methylpiperidin-4-yl)methyl)-1,3,4-oxadiazol-2-yl)-5-(trifluoromethyl)-3-azabicyclo[3.1.0]hexan-3-yl)quinoline-8-carbonitrile]"
3,< 1000 nM,"CN1CCC(Cc2nnc([C@]34CN(c5ccc(C#N)c6ncccc56)C[C@@]3(C(F)(F)F)C4)n2C)CC1 [Compound 38, 5-((1S,5R)-1-(4-methyl-5-((1-methylpiperidin-4-yl)methyl)-4H-1,2,4-triazol-3-yl)-5-(trifluoromethyl)-3-azabicyclo[3.1.0]hexan-3-yl)quinoline-8-carbonitrile]"
4,< 100 nM,"N#Cc1ccc(N2C[C@]3(c4nnc(CN5CCCC5)o4)C[C@]3(C(F)(F)F)C2)c2cccnc12 [Compound 41, 5-((1S,5R)-1-(5-(Pyrrolidin-1-ylmethyl)-1,3,4-oxadiazol-2-yl)-5-(trifluoromethyl)-3-azabicyclo[3.1.0]hexan-3-yl)quinoline-8-carbonitrile]"
5,< 1000 nM,"Cn1c(CN2CCCC2)nnc1[C@]12CN(c3ccc(C#N)c4ncccc34)C[C@@]1(C(F)(F)F)C2 [Compound 44, 5-((1S,5R)-1-(4-methyl-5-(pyrrolidin-1-ylmethyl)-4H-1,2,4-triazol-3-yl)-5-(trifluoromethyl)-3-azabicyclo[3.1.0]hexan-3-yl)quinoline-8-carbonitrile]"
6,< 100 nM,"CN1CCC(c2nnc([C@]34CN(c5ccc(C#N)c6ncccc56)C[C@@]3(C(F)(F)F)C4)o2)C(F)C1 (stereo partly drawn) [Compound 50, 5-((1S,5R)-1-(5-(3-fluoro-1-methylpiperidin-4-yl)-1,3,4-oxadiazol-2-yl)-5-(trifluoromethyl)-3-azabicyclo[3.1.0]hexan-3-yl)quinoline-8-carbonitrile]"
7,< 100 nM,"CN1CCC(n2cc([C@]34CN(c5ccc(C#N)c6ncccc56)C[C@@]3(C(F)(F)F)C4)nn2)CC1 [Compound 71, 5-((1S,5R)-1-(1-(1-methylpiperidin-4-yl)-1H-1,2,3-triazol-4-yl)-5-(trifluoromethyl)-3-azabicyclo[3.1.0]hexan-3-yl)quinoline-8-carbonitrile]"
